“Also recorded” adds a separate entry of the source.
Assays:
exosomal miR-195-5p = experiment: brain and serum exosomal miR-195-5p levels in mice treated with synj1-lowering agents; format: in vivo, mouse; details: for serum exosomal miR-195 levels: treated 5×FAD mice versus vehicle controls, N=6-8/group; for brain exosomal miR-195-5p levels: treated mice versus controls
Description: As disclosed herein, a study was performed to examine exosomal fractions of brain and serum samples of synj1 haploinsufficiency mice (ApoE3 synj1^+/− and ApoE4 synj1^+/−) as well as of mice treated with synj1-lowering agents (SynaptoCpd #9 and Cpd #6). Exosomes were purified using sucrose gradient fractionation methods and the purity of exosome fractions were evaluated by western blot analysis of exosomal protein markers such as ALIX, and uptake studies of fluorescence tagged exosomes by human iPSC-derived astrocyte cultures. […] In addition, serum exosomal miR-195-5p levels were positively correlated with brain exosomal miR-195-5p levels and cognitive performance (NOR preference index and Y maze SAP scores), and reversely correlated with brain insoluble pTau and synj1 protein levels in drug-treated mouse cohorts (FIG. 19C).

ApoE receptors = experiment: miR-195 levels in ApoE-/- neurons treated with ApoE3-CM or ApoE4-CM in the presence of RAP; format: cell-based, mouse; details: N=3/group
Description: Mouse Neuronal and human iPSC culture. Primary cortical neurons were cultured (Zhu L et al., Proc Natl Acad Sci USA 2015, and Zhu L et al., J Biol Chem 2013) before being fixed and stained for confocal microscopy analysis (Zeiss LSM) (Berg I et al., Nat Protoc 2010). In some conditions, bovine serum albumin (BSA) or receptor-associated protein (RAP) was included in the cultured media (N=3/group). Alternatively, cultured neurons were transfected with adeno-associated virus 2 (AAV2)-containing miR-195-5p or miR-374 or scramble controls for 5 days before subjected to analysis. […]
Statistical analysis. […] Levels of miR-195-5p and miR-374 were normalized to U6 and RNU6B (internal controls) while synj1 mRNA normalized to GAPDH and 18s, and then expressed as Log2fold of changes when compared to controls. Levels of synj1, dyn1, pTau, Tau, and holoAPP were normalized to β-actin levels and expressed as a percentage of the control. Absolute Aβ42, Aβ40, pTau, Tau, and ApoE concentrations were quantitatively determined by ELISA and expressed as a percentage of the control. […] Pearson correlation coefficients were calculated to determine the linear relationship between the two variables. […]

Row | Molecule | serum exosomal miR-195 levels (exosomal miR-195-5p) | brain exosomal miR-195-5p levels (exosomal miR-195-5p) | miR-195 levels (ApoE receptors; ApoE4 CM+RAP (ApoE4 CM+BSA −3.193±0.144)) [log2FC] | miR-195 levels (ApoE receptors; RAP in the presence of ApoE3-CM) [log2FC]
1 | COCCOC(=O)C1=C(C)NC(C)=C(C(=O)OC(C)C)C1c1ccc(C(F)(F)F)cc1 (stereo not drawn) [Cpd #6] | much higher; also recorded: significantly elevated | much higher | – | –
2 | COCCOC(=O)C1=C(C)NC(C)=C(C(=O)OC(C)C)C1c1ccc(C(C)(C)C)cc1 (stereo not drawn) [Cpd #9] | much higher; also recorded: significantly elevated | much higher | – | –
3 | RAP: ApoE-receptor associated protein, an inhibitor of ApoE receptors | – | – | −2.678±0.054 | −1.648±0.125
